Measurements taken from paper PMC7053212, “Auger radiopharmaceutical therapy targeting prostate-specific membrane antigen in a micrometastatic model of prostate cancer” (Theranostics, 2020).
Entries after “also recorded” stand apart in the source; their conditions may differ. Where two headings read alike, the source gives them in different places.

Columns and labels:
[1] = Long-term toxicity evaluation and necropsy, non-tumor-bearing mice; assay type: in vivo, CD1 mice
Method: Urinalysis evaluating specific gravity and urine protein levels via dipstick (Chemstrip Test Strips, Roche Diagnostics) was performed monthly for each animal. Terminal clinical and anatomic pathology was done in the Johns Hopkins Phenotyping and Comparative Pathology Core. Assessments included serum metabolic panel, blood counts, and complete necropsy with histopathology of more than 30 tissues as described previously.

[2] = Long-term biodistribution in normal tissues of non-tumor-bearing mice; assay type: in vivo, CD1 mice; settings: 18.5 MBq iv, mean
Method: Comparison between tumor and kidney uptake was performed using Student's t-test.

metastatic PC = system: metastatic PC; set-up: method as in PMID 23863050; settings: cited from earlier work
[3] = set-up: method as in PMID 27230930; settings: cited from earlier work
[4] = system: PSMA-positive micrometastatic PC model; set-up: method as in PMID 27230930; settings: 740 kBq; cited from earlier work
[5] = system: epidermal growth factor receptor-positive metastatic breast cancer; set-up: method as in PMID 24753984; settings: activities up to 2.3 GBq; cited from earlier work
[6] = any activity up to 111 MBq, 12 months

O=C(O)CCC(NC(=O)NC(CCCCNC(=O)c1ccc([125I])cc1)C(=O)O)C(=O)O (stereo not shown) [^125I-DCIBzL]
Average blood urea nitrogen ([1]; 111 MBq, necropsy at 12 months): 14.5 mg/dL | Average creatinine ([1]; 111 MBq, necropsy at 12 months): 0.4 mg/dL | Maximum tolerated dose (MTD) ([1]; CD1 mice, 12 months): at least 111 MBq | Maximum tolerated dose (MTD) ([1]; activities up to 111 MBq iv, 12 months): not reached | Death from toxicity [1, 6]: No mouse treated with any activity of ^125I-DCIBzL died from toxicity | Long-term toxicity (weight, urinalysis, necropsy) [1, 6]: no appreciable toxicity; also recorded: no acute or long-term toxicity was noted; also recorded: no long-term toxicities were noted | Renal histopathology ([1]; highest activities, 12 months): mild renal tubule epithelial hypertrophic changes with occasional atypia | Average hemoglobin at necropsy ([1]; treated mice, 12 months): 12.8 g/dL | Long-term hematologic toxicity (histopathology of spleen, bone marrow, lymph nodes) ([1]; treated mice, 12 months): not noted | Late nephropathy on necropsy ([1]; up to 111 MBq, 12 months): no evidence of late nephropathy | Changes in body weight or urine protein levels ([1]; up to 111 MBq, 12 months, vs untreated): no consistent changes | % Injected Dose/gram Bladder ([2]; 2 weeks): 0.15 % Injected Dose/gram | % Injected Dose/gram Blood ([2]; 2 weeks): 0.01 % Injected Dose/gram | % Injected Dose/gram Heart ([2]; 2 weeks): 0.05 % Injected Dose/gram | % Injected Dose/gram Large intestine ([2]; 2 weeks): 0.05 % Injected Dose/gram | % Injected Dose/gram Liver ([2]; 2 weeks): 0.05 % Injected Dose/gram | % Injected Dose/gram Lung ([2]; 2 weeks): 0.31 % Injected Dose/gram | % Injected Dose/gram Muscle ([2]; 2 weeks): 0.05 % Injected Dose/gram | % Injected Dose/gram Pancreas ([2]; 2 weeks): 0.07 % Injected Dose/gram | % Injected Dose/gram Salivary gland ([2]; 2 weeks): 0.13 % Injected Dose/gram | % Injected Dose/gram Small intestine ([2]; 2 weeks): 0.03 % Injected Dose/gram | % Injected Dose/gram Spleen ([2]; 2 weeks): 0.77 % Injected Dose/gram | % Injected Dose/gram Stomach ([2]; 2 weeks): 0.05 % Injected Dose/gram | % Injected Dose/gram Bladder ([2]; 4 weeks): 0.06 % Injected Dose/gram | % Injected Dose/gram Blood ([2]; 4 weeks): 0.00 % Injected Dose/gram | % Injected Dose/gram Heart ([2]; 4 weeks): 0.02 % Injected Dose/gram | % Injected Dose/gram Large intestine ([2]; 4 weeks): 0.02 % Injected Dose/gram | % Injected Dose/gram Liver ([2]; 4 weeks): 0.02 % Injected Dose/gram | % Injected Dose/gram Lung ([2]; 4 weeks): 0.12 % Injected Dose/gram | % Injected Dose/gram Muscle ([2]; 4 weeks): 0.03 % Injected Dose/gram | % Injected Dose/gram Pancreas ([2]; 4 weeks): 0.03 % Injected Dose/gram | % Injected Dose/gram Salivary gland ([2]; 4 weeks): 0.05 % Injected Dose/gram | % Injected Dose/gram Small intestine ([2]; 4 weeks): 0.02 % Injected Dose/gram | % Injected Dose/gram Spleen ([2]; 4 weeks): 0.36 % Injected Dose/gram | % Injected Dose/gram Stomach ([2]; 4 weeks): 0.02 % Injected Dose/gram | % Injected Dose/gram Bladder ([2]; 6 weeks): 0.04 % Injected Dose/gram | % Injected Dose/gram Blood ([2]; 6 weeks): 0.00 % Injected Dose/gram | % Injected Dose/gram Heart ([2]; 6 weeks): 0.01 % Injected Dose/gram | % Injected Dose/gram Large intestine ([2]; 6 weeks): 0.02 % Injected Dose/gram | % Injected Dose/gram Liver ([2]; 6 weeks): 0.01 % Injected Dose/gram | % Injected Dose/gram Lung ([2]; 6 weeks): 0.05 % Injected Dose/gram | % Injected Dose/gram Muscle ([2]; 6 weeks): 0.02 % Injected Dose/gram | % Injected Dose/gram Pancreas ([2]; 6 weeks): 0.02 % Injected Dose/gram | % Injected Dose/gram Salivary gland ([2]; 6 weeks): 0.02 % Injected Dose/gram | % Injected Dose/gram Small intestine ([2]; 6 weeks): 0.01 % Injected Dose/gram | % Injected Dose/gram Spleen ([2]; 6 weeks): 0.10 % Injected Dose/gram | % Injected Dose/gram Stomach ([2]; 6 weeks): 0.01 % Injected Dose/gram | % Injected Dose/gram Bladder ([2]; 8 weeks): 0.01 % Injected Dose/gram | % Injected Dose/gram Blood ([2]; 8 weeks): 0.00 % Injected Dose/gram | % Injected Dose/gram Heart ([2]; 8 weeks): 0.00 % Injected Dose/gram | % Injected Dose/gram Large intestine ([2]; 8 weeks): 0.01 % Injected Dose/gram | % Injected Dose/gram Liver ([2]; 8 weeks): 0.00 % Injected Dose/gram | % Injected Dose/gram Lung ([2]; 8 weeks): 0.03 % Injected Dose/gram | % Injected Dose/gram Muscle ([2]; 8 weeks): 0.01 % Injected Dose/gram | % Injected Dose/gram Pancreas ([2]; 8 weeks): 0.01 % Injected Dose/gram | % Injected Dose/gram Salivary gland ([2]; 8 weeks): 0.01 % Injected Dose/gram | % Injected Dose/gram Small intestine ([2]; 8 weeks): 0.01 % Injected Dose/gram | % Injected Dose/gram Spleen ([2]; 8 weeks): 0.05 % Injected Dose/gram | % Injected Dose/gram Stomach ([2]; 8 weeks): 0.00 % Injected Dose/gram | % Injected Dose/gram Bladder ([2]; 10 weeks): 0.00 % Injected Dose/gram | % Injected Dose/gram Blood ([2]; 10 weeks): 0.00 % Injected Dose/gram | % Injected Dose/gram Heart ([2]; 10 weeks): 0.00 % Injected Dose/gram | % Injected Dose/gram Large intestine ([2]; 10 weeks): 0.00 % Injected Dose/gram | % Injected Dose/gram Liver ([2]; 10 weeks): 0.00 % Injected Dose/gram | % Injected Dose/gram Lung ([2]; 10 weeks): 0.00 % Injected Dose/gram | % Injected Dose/gram Muscle ([2]; 10 weeks): 0.00 % Injected Dose/gram | % Injected Dose/gram Pancreas ([2]; 10 weeks): 0.00 % Injected Dose/gram | % Injected Dose/gram Salivary gland ([2]; 10 weeks): 0.00 % Injected Dose/gram | % Injected Dose/gram Small intestine ([2]; 10 weeks): 0.00 % Injected Dose/gram | % Injected Dose/gram Spleen ([2]; 10 weeks): 0.01 % Injected Dose/gram | % Injected Dose/gram Stomach ([2]; 10 weeks): 0.00 % Injected Dose/gram | % Injected Dose/gram Bladder ([2]; 12 weeks): 0.00 % Injected Dose/gram | % Injected Dose/gram Blood ([2]; 12 weeks): 0.00 % Injected Dose/gram | % Injected Dose/gram Heart ([2]; 12 weeks): 0.00 % Injected Dose/gram | % Injected Dose/gram Large intestine ([2]; 12 weeks): 0.00 % Injected Dose/gram | % Injected Dose/gram Liver ([2]; 12 weeks): 0.00 % Injected Dose/gram | % Injected Dose/gram Lung ([2]; 12 weeks): 0.01 % Injected Dose/gram | % Injected Dose/gram Muscle ([2]; 12 weeks): 0.00 % Injected Dose/gram | % Injected Dose/gram Pancreas ([2]; 12 weeks): 0.00 % Injected Dose/gram | % Injected Dose/gram Salivary gland ([2]; 12 weeks): 0.00 % Injected Dose/gram | % Injected Dose/gram Small intestine ([2]; 12 weeks): 0.00 % Injected Dose/gram | % Injected Dose/gram Spleen ([2]; 12 weeks): 0.01 % Injected Dose/gram | % Injected Dose/gram Stomach ([2]; 12 weeks): 0.00 % Injected Dose/gram

[Cl][223Ra][Cl] [^223RaCl2]
Prolongation of survival (metastatic PC): 3 months

O=C(O)CC[C@H](NC(=O)NC(CCCCNC(=O)c1ccc([211At])cc1)C(=O)O)C(=O)O (stereo partly drawn) [^211At-PSMA-6, (2S)-2-(3-(1-carboxy-5-(4-^211At-astatobenzamido)pentyl)ureido)-pentanedioic acid]
Maximum tolerated dose (MTD) ([3]; CD1 mice): 37 kBq | Dose-limiting toxicity [3]: dose-limiting late nephrotoxicity | Increase in median survival [4]: ~2 fold

^111In-DTPA-hEGF: Auger RPT evaluated in a Phase I trial of epidermal growth factor receptor-positive metastatic breast cancer
MTD [5]: not reached
